Experimental data: patent US20250179103A1, “6-OXODECAHYDROPYRROLO[1,2-A][1,5]DIAZOCINE AND 6-OXODECAHYDRO-4H-PYRROLO[2,1-D][1,5]THIAZOCINE DERIVATIVES AS STAT3 AND STAT6 MODULATORS FOR THE TREATMENT OF CANCER AND INFLAMMATORY CONDITIONS” (Recludix Pharma, Inc., priority 2022, published 2025)

What was measured:
[1] = biological target: T1, Recombinant STAT6 protein (STAT6(W123-T658)) (Homo sapiens, UniProt P42226); assay: STAT6 Fluorescence Polarization (FP) Assay; type: binding; conditions: STAT6(W123-T658) 250 nM, probe 5-FAM-ApYKPFQDLI-NH2 2 nM, 45-minute incubation
T1 construct: Recombinant STAT6 protein (STAT6(W123-T658))
T1 sequence (P42226 123-658): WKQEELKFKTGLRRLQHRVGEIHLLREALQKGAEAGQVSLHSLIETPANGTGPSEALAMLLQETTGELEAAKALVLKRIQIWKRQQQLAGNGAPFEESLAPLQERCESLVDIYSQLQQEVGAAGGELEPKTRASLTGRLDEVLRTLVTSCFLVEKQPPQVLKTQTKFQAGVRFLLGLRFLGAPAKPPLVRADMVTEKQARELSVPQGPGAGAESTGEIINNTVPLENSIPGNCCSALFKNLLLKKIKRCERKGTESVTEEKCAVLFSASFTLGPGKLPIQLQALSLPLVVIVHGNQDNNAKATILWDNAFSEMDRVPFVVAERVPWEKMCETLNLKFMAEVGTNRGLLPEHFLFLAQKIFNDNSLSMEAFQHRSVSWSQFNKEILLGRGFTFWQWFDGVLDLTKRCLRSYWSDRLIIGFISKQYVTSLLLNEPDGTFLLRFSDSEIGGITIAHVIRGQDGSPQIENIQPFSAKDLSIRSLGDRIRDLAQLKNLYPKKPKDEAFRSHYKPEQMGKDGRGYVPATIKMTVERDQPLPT
Protocol: STAT6 Fluorescence Polarization (FP) Assay
An FP assay was developed to determine IC50 values for test substances. Recombinant STAT6 protein (STAT6(W123-T658)) at 250 nM was combined with a fluorescently labeled, phosphotyrosine peptide probe (5-FAM-ApYKPFQDLI-NH2) at 2 nM in FP buffer (10 mM HEPES pH 7.4, 50 mM NaCl, 1 mM EDTA, 0.05% Tween 20.2 mM DTT). 50 μL of STAT6-probe mixture was added to serial diluted compounds in black, 96-well plates (Greiner BioOne 655076) to a final concentration of 1% DMSO. Reaction components were mixed, and FP was measured after 45-minute incubation at room temperature using a Tecan Spark multimode plate reader. FP signal (mP) was plotted against the log concentration of the test substances and IC50 values were calculated by nonlinear regression analysis using GraphPad Prism software. For STAT6 FP assay, A=≤300 nM; B=>300-3000 nM; C=>3-30 μM; and D=>30 μM.

[2] = biological target: T2, Recombinant STAT3 protein (STAT3(G127-I722)) (Homo sapiens, UniProt P40763); assay: STAT3 Fluorescence Polarization (FP) Assay; type: binding; conditions: STAT3(G127-I722) 25 nM, probe 5-FAM-GpYLPQTV-NH2 2 nM, 45-minute incubation
T2 construct: Recombinant STAT3 protein (STAT3(G127-I722))
T2 sequence (P40763 127-722): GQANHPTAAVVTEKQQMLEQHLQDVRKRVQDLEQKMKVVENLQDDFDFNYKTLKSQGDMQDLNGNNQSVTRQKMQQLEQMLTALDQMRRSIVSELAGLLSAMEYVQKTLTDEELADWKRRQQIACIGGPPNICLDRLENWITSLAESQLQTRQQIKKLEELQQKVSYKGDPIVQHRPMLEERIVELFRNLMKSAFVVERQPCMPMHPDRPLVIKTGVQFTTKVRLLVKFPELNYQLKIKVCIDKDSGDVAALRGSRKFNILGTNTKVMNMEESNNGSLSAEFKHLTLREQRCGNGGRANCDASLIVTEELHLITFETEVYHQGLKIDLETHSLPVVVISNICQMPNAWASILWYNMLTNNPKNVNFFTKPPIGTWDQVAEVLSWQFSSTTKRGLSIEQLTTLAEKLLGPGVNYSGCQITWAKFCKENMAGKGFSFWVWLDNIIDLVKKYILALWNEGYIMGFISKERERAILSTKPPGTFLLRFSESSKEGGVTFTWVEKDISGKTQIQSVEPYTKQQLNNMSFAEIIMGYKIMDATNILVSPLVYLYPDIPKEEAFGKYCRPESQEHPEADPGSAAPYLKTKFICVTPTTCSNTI
Protocol: STAT3 Fluorescence Polarization (FP) Assay
An FP assay was developed to determine IC50 values for test substances. Recombinant STAT3 protein (STAT3(G127-I722)) at 25 nM was combined with a fluorescently labeled, phosphotyrosine peptide probe (5-FAM-GpYLPQTV-NH2) at 2 nM in FP buffer (10 mM HEPES pH 7.4, 50 mM NaCl, 1 mM EDTA, 0.05% Tween 20.2 mM DTT). 50 μL of STAT3-probe mixture was added to serial diluted compounds in black, 96-well plates (Greiner BioOne 655076) to a final concentration of 1% DMSO. Reaction components were mixed, and FP was measured after 45-minute incubation at room temperature using a Tecan Spark multimode plate reader. FP signal (mP) was plotted against the log concentration of the test substances and IC50 values were calculated by nonlinear regression analysis using GraphPad Prism software. For STAT3 FP assay, A=≤100 nM; B=>100-1000 nM; C=>1-10 μM; and D=>10 μM.

SMILES	IC50 [1] [nM]	IC50 [2] [nM]
CCC(=O)NCCCN(C)C(=O)[C@@H]1CC[C@@H]2CCN(C(C)=O)C[C@H](NC(=O)/C=C(\C)c3ccc(C(F)(F)P(=O)(O)O)cc3)C(=O)N21 [Compound 25, ((4-((E)-4-(((5S,8S,10aR)-3-acetyl-8-(methyl(3-propionamidopropyl)carbamoyl)-6-oxodecahydropyrrolo[1,2-a][1,5]diazocin-5-yl)amino)-4-oxobut-2-en-2-yl)phenyl)difluoromethyl)phosphonic acid]	3000 to 30000	> 10000
CC(=O)N1CC[C@H]2CC[C@@H](C(=O)N(C)c3ccccc3)N2C(=O)[C@@H](NC(=O)c2cc3cc(C(F)(F)P(=O)(O)O)cnc3s2)C1 [Compound 110, ((2-(((5S,8S,10aR)-3-acetyl-8-(methyl(phenyl)carbamoyl)-6-oxodecahydropyrrolo[1,2-a][1,5]diazocin-5-yl)carbamoyl)thieno[2,3-b]pyridin-5-yl)difluoromethyl)phosphonic acid]	3000 to 30000	1000 to 10000
C[C@@H](C(=O)N1CC[C@H]2CC[C@@H](C(=O)N(C)c3ccccc3)N2C(=O)[C@@H](NC(=O)c2cc3cc(C(F)(F)P(=O)(O)O)ccc3[nH]2)C1)c1ccccc1 [Compound 217, (difluoro(2-(((5S,8S,10aR)-8-(methyl(phenyl)carbamoyl)-6-oxo-3-((R)-2-phenylpropanoyl)decahydropyrrolo[1,2 a][1,5]diazocin-5-yl)carbamoyl)-1H-indol-5-yl)methyl)phosphonic acid]	300 to 3000	> 10000
CC(=O)N1CC[C@H]2CC[C@@H](C(=O)N3CCC[C@H]3Cc3ccccc3)N2C(=O)[C@@H](NC(=O)c2cc3cc(C(F)(F)P(=O)(O)O)ccc3[nH]2)C1 [Compound 163, ((2-(((5S,8S,10aR)-3-acetyl-8-((S)-2-benzylpyrrolidine-1-carbonyl)-6-oxodecahydropyrrolo[1,2-a][1,5]diazocin-5-yl)carbamoyl)-1H-indol-5-yl)difluoromethyl)phosphonic acid]	300 to 3000	1000 to 10000
O=C(N[C@H]1CN(C(=O)Cc2ccccc2)CC[C@H]2CC[C@@H](C(=O)Nc3ccccc3-c3ccccc3)N2C1=O)c1cc2cc(C(F)(F)P(=O)(O)O)ccc2[nH]1 [Compound 265, ((2-(((5S,8S,10aR)-8-([1,1′-biphenyl]-2-ylcarbamoyl)-6-oxo-3-(2-phenylacetyl)decahydropyrrolo[1,2-a][1,5]diazocin-5-yl)carbamoyl)-1H-indol-5-yl)difluoromethyl)phosphonic acid]	300 to 3000	1000 to 10000
CC(=O)N1CC[C@H]2CC[C@@H](C(=O)N(C)c3ccc(Cl)cc3)N2C(=O)[C@@H](NC(=O)c2cc3cc(C(F)(F)P(=O)(O)O)ccc3s2)C1 [Compound 187, ((2-(((5S,8S,10aR)-3-acetyl-8-((4-chlorophenyl)(methyl)carbamoyl)-6-oxodecahydropyrrolo[1,2-a][1,5]diazocin-5-yl)carbamoyl)benzo[b]thiophen-5-yl)difluoromethyl)phosphonic acid]	300 to 3000	1000 to 10000
C[C@H](Cc1ccccc1)C(=O)N1CC[C@H]2CC[C@@H](C(=O)N3CCCC3)N2C(=O)[C@@H](NC(=O)c2cc3cc(C(F)(F)P(=O)(O)O)ccc3s2)C1 [Compound 259, (difluoro(2-(((5S,8S,10aR)-3-((R)-2-methyl-3-phenylpropanoyl)-6-oxo-8-(pyrrolidine-1-carbonyl)decahydropyrrolo[1,2-a][1,5]diazocin-5-yl)carbamoyl)benzo[b]thiophen-5-yl)methyl)phosphonic acid]	300 to 3000	100 to 1000
CC(=O)N1CC[C@H]2CC[C@@H](C(=O)N3CC(c4ccn(C)c(=O)c4)CC34CC4)N2C(=O)[C@@H](NC(=O)c2ccc3ccc(CP(=O)(O)O)cc3c2)C1 (stereo partly drawn) [Compound 356, ((7-(((5S,8S,10a R)-3-acetyl-8-(6-(1-methyl-2-oxo-1,2-dihydropyridin-4-yl)-4-azaspiro[2.4]heptane-4-carbonyl)-6-oxodeca-hydropyrrolo [1,2-a][1,5]diazocin-5-yl)carbamoyl)naphthalen-2-yl)methyl) phosphonic acid]	300 to 3000	> 10000
CN(C(=O)[C@@H]1CC[C@@H]2CCN(C(=O)Cc3ccccc3)C[C@H](NC(=O)c3cc4cc(C(F)(F)P(=O)(O)O)ccc4[nH]3)C(=O)N21)c1ccccc1 [Compound 3, (difluoro(2-(((5S,8S,10aR)-8-(methyl(phenyl)carbamoyl)-6-oxo-3-(2-phenylacetyl)decahydropyrrolo[1,2-a][1,5]diazocin-5-yl)carbamoyl)-1H-indol-5-yl)methyl)phosphonic acid]	300 to 3000	1000 to 10000

Now from value to compound:

IC50 [1] [nM]	IC50 [2] [nM]	SMILES
≤ 300	1000 to 10000	COc1ccccc1C1CN(C(=O)[C@@H]2CC[C@@H]3CCN(C(C)=O)C[C@H](NC(=O)c4cc5cc(C(F)(F)P(=O)(O)O)ccc5s4)C(=O)N32)C[C@@H]1C#N (relative stereo) [Compound 144, ((2-(((5S,8S,10aR)-3-acetyl-8-((rel-trans)-3-cyano-4-(2-methoxyphenyl)pyrrolidine-1-carbonyl)-6-oxodecahydropyrrolo[1,2-a][1,5]diazocin-5-yl)carbamoyl)benzo[b]thiophen-5-yl)difluoromethyl)phosphonic acid]
300 to 3000	100 to 1000	CO[C@H]1CN(C(C)=O)C[C@@H]1NC(=O)[C@@H]1CC[C@@H]2CCN(C(C)=O)C[C@H](NC(=O)c3cc4cc(C(F)(F)P(=O)(O)O)ccc4s3)C(=O)N21 [Compound 184, ((2-(((5S,8S,10aR)-3-acetyl-8-(((3S,4S)-1-acetyl-4-methoxypyrrolidin-3-yl)carbamoyl)-6-oxodecahydropyrrolo[1,2-a][1,5]diazocin-5-yl)carbamoyl)benzo[b]thiophen-5-yl)difluoromethyl)phosphonic acid]
300 to 3000	100 to 1000	CC(=O)N1CC[C@H]2CC[C@@H](C(=O)N3C[C@@H](C#N)[C@@H]3c3ccccc3)N2C(=O)[C@@H](NC(=O)c2cc3cc(C(F)(F)P(=O)(O)O)ccc3s2)C1 (relative stereo) [Compound 204, ((2-(((5S,8S,10aR)-3-acetyl-8-((rel-trans)-3-cyano-2-phenylazetidine-1-carbonyl)-6-oxodecahydropyrrolo[1,2-a][1,5]diazocin-5-yl)carbamoyl)benzo[b]thiophen-5-yl)difluoromethyl)phosphonic acid]
300 to 3000	100 to 1000	CC(=O)N1CC[C@H]2CC[C@@H](C(=O)N[C@H]3CN(C(C)=O)C[C@@H]3O)N2C(=O)[C@@H](NC(=O)c2cc3cc(C(F)(F)P(=O)(O)O)ccc3s2)C1 [Compound 182, ((2-(((5S,8S,10aR)-3-acetyl-8-(((3S,4S)-1-acetyl-4-hydroxypyrrolidin-3-yl)carbamoyl)-6-oxodecahydropyrrolo[1,2-a][1,5]diazocin-5-yl)carbamoyl)benzo[b]thiophen-5-yl)difluoromethyl)phosphonic acid]
≤ 300	1000 to 10000	COc1cccc([C@@H]2CN(C(=O)[C@@H]3CC[C@@H]4CCN(C(C)=O)C[C@H](NC(=O)c5cc6cc(C(F)(F)P(=O)(O)O)ccc6s5)C(=O)N43)C[C@H]2C#N)c1 (relative stereo) [Compound 149, ((2-(((5S,8S,10aR)-3-acetyl-8-((rel-trans)-3-cyano-4-(3-methoxyphenyl)pyrrolidine-1-carbonyl)-6-oxodecahydropyrrolo[1,2-a][1,5]diazocin-5-yl)carbamoyl)benzo[b]thiophen-5-yl)difluoromethyl)phosphonic acid]
